In US20250352554A1 (Neurelis, Inc., priority 2024, published 2025):
Where two headings read alike, the source gives them in different places.

Settings: saturated solution

Measured: Appearance

Cc1cc2c(s1)Nc1ccccc1N=C2N1CCN(C)CC1 [olanzapine, 2-methyl-4-(4-methyl-1-piperazinyl)-10H-thieno[2,3-b][1,5]benzodiazepine]
Clear amber solution: 20% Dimethylacetamide/80% PEG 200 | 40% Dimethylacetamide/60% PEG 200 | 100% PEG 200
